Data reported in the NIST ThermoML archive (doi:10.1021/acs.jced.6b00523).
Where “and” joins values, the source holds several entries; their conditions need not be identical. Equal entries are not always repeated.

Tests used:
[1] = Molar enthalpy of transition or fusion; conditions: DSC
[2] = Closed cell (Static) method
[3] = Solid-liquid equilibrium temperature; conditions: 100 kPa, DTA
[4] = Boiling temperature at pressure P; conditions: 100 kPa; Glass; DTA

O=C(c1ccccc1)c1ccccc1 [benzophenone]
Conditions	Molar enthalpy of transition or fusion, [1] [kcal/mol]	Solid-liquid equilibrium temperature, [3] [K]
Crystal	4.45	321.3
Metastable crystal	3.47	298.3

[2]
Conditions	vapor or sublimation pressure
293.08 K, Crystal	4.2e-05 kPa
293.09 K, Crystal	4.6e-05 kPa
293.1 K, Crystal	4.1e-05 kPa
293.11 K, Metastable liquid	8.1e-05 kPa and 8.4e-05 kPa and 8.5e-05 kPa
296.29 K, Crystal	6.8e-05 kPa and 6.9e-05 kPa
296.3 K, Crystal	6.7e-05 kPa
298.44 K, Crystal	9.2e-05 kPa and 9.3e-05 kPa
298.45 K, Crystal	9e-05 kPa
298.48 K, Metastable liquid	0.000153 kPa and 0.000157 kPa and 0.000158 kPa
300.55 K, Crystal	0.000124 kPa
300.56 K, Crystal	0.000118 kPa and 0.000119 kPa
302.13 K, Metastable liquid	0.000217 kPa and 0.000221 kPa
302.14 K, Metastable liquid	0.000217 kPa
303.2 K, Crystal	0.000168 kPa
303.22 K, Crystal	0.000166 kPa
303.25 K, Crystal	0.000165 kPa
306.93 K, Crystal	0.000263 kPa and 0.000265 kPa and 0.000267 kPa
307.46 K, Metastable liquid	0.000382 kPa
307.48 K, Metastable liquid	0.000376 kPa and 0.00038 kPa
309.05 K, Crystal	0.000338 kPa and 0.00034 kPa and 0.000345 kPa
311.1 K, Crystal	0.000431 kPa and 0.000434 kPa and 0.000435 kPa
312.77 K, Metastable liquid	0.000631 kPa
312.78 K, Metastable liquid	0.000635 kPa and 0.000637 kPa
314.3 K, Crystal	0.000629 kPa and 0.000632 kPa and 0.000635 kPa
317.33 K, Crystal	0.000891 kPa
317.34 K, Crystal	0.000892 kPa and 0.000899 kPa
318.05 K, Metastable liquid	0.001035 kPa and 0.001036 kPa and 0.001039 kPa
319.4 K, Crystal	0.00113 kPa
319.41 K, Crystal	0.001128 kPa and 0.001131 kPa
320.42 K, Crystal	0.001256 kPa and 0.001265 kPa and 0.001267 kPa
320.95 K, Crystal	0.001353 kPa and 0.001356 kPa and 0.001362 kPa
323.33 K, Metastable liquid	0.001658 kPa and 0.00166 kPa and 0.001661 kPa
333.79 K, Liquid	0.003974 kPa and 0.003975 kPa and 0.003979 kPa
338.9 K, Liquid	0.005953 kPa and 0.005954 kPa and 0.005968 kPa
344.09 K, Liquid	0.008882 kPa and 0.00889 kPa and 0.008894 kPa
349.19 K, Liquid	0.0129 kPa and 0.01291 kPa and 0.01293 kPa
354.35 K, Liquid	0.01864 kPa and 0.01865 kPa and 0.01866 kPa
359.4 K, Liquid	0.02628 kPa and 0.02629 kPa and 0.02631 kPa
364.47 K, Liquid	0.03673 kPa
364.48 K, Liquid	0.03672 kPa

Conditions	Boiling temperature at pressure P [°C]
[4]	-61

CCCCCCCCCC [decane]
[2], Liquid
Conditions	vapor or sublimation pressure
276.76 K	0.03526 kPa
276.77 K	0.03527 kPa and 0.03532 kPa
279.78 K	0.0452 kPa
279.79 K	0.04525 kPa
282.92 K	0.0583 kPa and 0.05835 kPa
282.93 K	0.05835 kPa
285.13 K	0.06951 kPa
285.16 K	0.06967 kPa
285.18 K	0.06981 kPa
288.76 K	0.0915 kPa and 0.09155 kPa
288.77 K	0.09159 kPa
292.21 K	0.1188 kPa
292.22 K	0.1188 kPa
294.67 K	0.1405 kPa
301.29 K	0.2229 kPa
301.38 K	0.2242 kPa and 0.2243 kPa
303.84 K	0.2659 kPa
303.85 K	0.266 kPa and 0.2661 kPa
307.33 K	0.3327 kPa and 0.3328 kPa
315.2 K	0.5466 kPa
315.21 K	0.5467 kPa
319.09 K	0.6901 kPa
319.11 K	0.6907 kPa and 0.6909 kPa
320.85 K	0.7646 kPa and 0.7649 kPa and 0.765 kPa
324.98 K	0.9683 kPa
324.99 K	0.9687 kPa
325 K	0.9687 kPa
326.41 K	1.049 kPa
330.79 K	1.33 kPa and 1.331 kPa
330.8 K	1.332 kPa
331.92 K	1.414 kPa
331.93 K	1.415 kPa

[CH]1C=CC=C1.[CH]1C=CC=C1.[Fe] [ferrocene]
[2], Crystal
Conditions	vapor or sublimation pressure
276.97 K	9.4e-05 kPa and 9.7e-05 kPa
276.98 K	0.000101 kPa
282.75 K	0.000181 kPa and 0.000189 kPa
282.76 K	0.000194 kPa
286.28 K	0.000288 kPa
286.29 K	0.000285 kPa
286.31 K	0.000283 kPa
288.24 K	0.000335 kPa and 0.000344 kPa
292.28 K	0.000536 kPa
292.29 K	0.000527 kPa and 0.000529 kPa
293.76 K	0.000622 kPa and 0.000626 kPa and 0.000627 kPa
294.28 K	0.000652 kPa
294.29 K	0.000646 kPa
294.34 K	0.00065 kPa
296.77 K	0.000841 kPa
296.78 K	0.000848 kPa and 0.000858 kPa
299.19 K	0.001072 kPa and 0.001073 kPa and 0.001078 kPa
302.11 K	0.001417 kPa
302.13 K	0.001428 kPa and 0.001429 kPa
303.24 K	0.00162 kPa
303.25 K	0.001618 kPa
304.61 K	0.001809 kPa and 0.001811 kPa and 0.001815 kPa
307.47 K	0.002395 kPa and 0.002397 kPa and 0.002384 kPa
310.03 K	0.003047 kPa and 0.003053 kPa
310.04 K	0.003068 kPa
312.78 K	0.003906 kPa and 0.00391 kPa and 0.003916 kPa
314.08 K	0.00442 kPa and 0.004424 kPa
314.09 K	0.004449 kPa
315.43 K	0.004969 kPa and 0.004971 kPa
318.06 K	0.006287 kPa and 0.006293 kPa and 0.006304 kPa
320.77 K	0.007956 kPa
323.34 K	0.009923 kPa
323.35 K	0.009927 kPa and 0.009932 kPa
324.89 K	0.01134 kPa and 0.01135 kPa
326.09 K	0.01251 kPa and 0.01252 kPa
328.59 K	0.01539 kPa
328.6 K	0.0154 kPa and 0.01541 kPa
331.35 K	0.01928 kPa
331.36 K	0.01929 kPa and 0.0193 kPa
333.86 K	0.02352 kPa
335.51 K	0.02691 kPa and 0.02692 kPa
336.59 K	0.02929 kPa
336.6 K	0.02929 kPa
339.07 K	0.03535 kPa
339.08 K	0.03533 kPa and 0.03537 kPa
341.81 K	0.04367 kPa and 0.04368 kPa and 0.04369 kPa
344.2 K	0.052 kPa
344.21 K	0.05207 kPa and 0.0521 kPa
346.02 K	0.0598 kPa and 0.05982 kPa and 0.05985 kPa
349.36 K	0.07591 kPa
349.37 K	0.07593 kPa and 0.07595 kPa
351.22 K	0.08709 kPa and 0.08711 kPa and 0.08712 kPa
354.37 K	0.1082 kPa
356.27 K	0.1242 kPa
359.5 K	0.1538 kPa
359.51 K	0.1539 kPa
362.73 K	0.1914 kPa and 0.1916 kPa
366.77 K	0.2492 kPa and 0.2493 kPa and 0.2494 kPa

c1ccc2ccccc2c1 [naphthalene]
[2]
Conditions	vapor or sublimation pressure
276.72 K, Crystal	0.001118 kPa
276.73 K, Crystal	0.001122 kPa
276.74 K, Crystal	0.001118 kPa
280.12 K, Crystal	0.001625 kPa
280.15 K, Crystal	0.001634 kPa
280.17 K, Crystal	0.001644 kPa
283.27 K, Crystal	0.002321 kPa and 0.002329 kPa and 0.002333 kPa
286.33 K, Crystal	0.003264 kPa and 0.003275 kPa
286.34 K, Crystal	0.003276 kPa
289.39 K, Crystal	0.004482 kPa and 0.004484 kPa and 0.004493 kPa
292 K, Crystal	0.005885 kPa and 0.005899 kPa and 0.005902 kPa
292.04 K, Crystal	0.005878 kPa
292.05 K, Crystal	0.005881 kPa and 0.005889 kPa
293.36 K, Crystal	0.006861 kPa
293.38 K, Crystal	0.006881 kPa
293.4 K, Crystal	0.006871 kPa
294.91 K, Crystal	0.007907 kPa
294.94 K, Crystal	0.007905 kPa
294.96 K, Crystal	0.007922 kPa
296.91 K, Crystal	0.009768 kPa and 0.009773 kPa
296.92 K, Crystal	0.009786 kPa
297.67 K, Crystal	0.01039 kPa and 0.0104 kPa
297.68 K, Crystal	0.01041 kPa
300.93 K, Crystal	0.01426 kPa
300.95 K, Crystal	0.01427 kPa and 0.01428 kPa
302.6 K, Crystal	0.01691 kPa and 0.01696 kPa
303.67 K, Crystal	0.01833 kPa and 0.01835 kPa
306.52 K, Crystal	0.02413 kPa
306.6 K, Crystal	0.02433 kPa
306.65 K, Crystal	0.02446 kPa
308.22 K, Crystal	0.02835 kPa and 0.02834 kPa
312.83 K, Crystal	0.04277 kPa
312.84 K, Crystal	0.04281 kPa
312.85 K, Crystal	0.04282 kPa
313.85 K, Crystal	0.04691 kPa
315.09 K, Crystal	0.05173 kPa and 0.05174 kPa
317.19 K, Crystal	0.06259 kPa and 0.06261 kPa and 0.06262 kPa
319.43 K, Crystal	0.07588 kPa and 0.07592 kPa
324.1 K, Crystal	0.1124 kPa
324.99 K, Crystal	0.1206 kPa
325 K, Crystal	0.1206 kPa
325.01 K, Crystal	0.1206 kPa
326.36 K, Crystal	0.1338 kPa
326.37 K, Crystal	0.1338 kPa
328.22 K, Crystal	0.1567 kPa
330.59 K, Crystal	0.1886 kPa
330.6 K, Crystal	0.1887 kPa
335.27 K, Crystal	0.2723 kPa
335.28 K, Crystal	0.2726 kPa
335.31 K, Crystal	0.2732 kPa
336.07 K, Crystal	0.288 kPa and 0.2881 kPa
337.45 K, Crystal	0.3184 kPa
337.46 K, Crystal	0.3185 kPa
339.09 K, Crystal	0.3626 kPa and 0.3628 kPa and 0.3624 kPa
341.45 K, Crystal	0.4305 kPa
341.46 K, Crystal	0.4306 kPa
346.83 K, Crystal	0.6347 kPa
346.84 K, Crystal	0.6347 kPa
348.58 K, Crystal	0.7143 kPa and 0.7145 kPa and 0.7148 kPa
352.18 K, Crystal	0.9195 kPa and 0.9196 kPa
355.35 K, Liquid	1.098 kPa
358.34 K, Liquid	1.266 kPa
358.36 K, Liquid	1.267 kPa
358.38 K, Liquid	1.269 kPa
